Values joined by “and” are separate entries in the source; they are usually repeats but may differ in a detail not shown here. Equal values may be shown once.
Assays:
[1] = test system: B16F10 CD73 melanoma metastases; experiment: Example 9: number of lung tumor metastases in the B16F10 CD73 tumor mouse model; format: in vivo, C57/BL6 mice (A2A-/- or Wild-Type)
Experimental: The C57/BL6 mouse melanoma cell line B16F10 CD73 was cultured in DMEM supplemented with 10% FCS, GlutaMAX, and penicillin/streptomycin. Tumor cells are periodically verified to be Mycoplasma negative by the Victorian Infectious Diseases References
Lab (Melbourne, VIC, Australia) by PCR analysis. 2×10^5 cells were resuspended in PBS and injected i.v. into C57/BL6 mice (A2A^−/− or Wild-Type) in a 200 μL volume. At day 14 lungs were excised and the number of metastases counted under the dissecting microscope. Mice were dosed with either SYN-115 (Batch 71236AA002) at 100 mg/kg or vehicle control once-daily via oral gavage on days 0 to 13. To calculate a dose of SYN-115 mouse weight was estimated to be 20 g per mouse. Therefore, 100 mg/kg=2 mg per mouse in 200 μL, which is equivalent to 10 mg/ml. To make up 40 mL, 400 milligrams of SYN-115 was weighed and added into a Falcon tube, then 1 mL of Tween 80 was added and mixed into a paste and then 39 mL of 1% Methyl Cellulose was added. The solution was vortexed and then left on a rotating mixer for at least 2 hours and maintained at 4° C.

[2] = test system: AT-3ova CD73+ tumour (mouse breast carcinoma cell line AT-3); experiment: Example 3: anti-tumor responses of SYN-115 QD or BID in the AT-3ova CD73+ tumour cell mouse model (tumor area); format: in vivo, C57/BL6 mice; parameters: key to Raw Tumor Measurements: tumor area, width × length in mm^2
Experimental: (§1) The C57BL/6 mouse breast carcinoma cell line AT-3 was obtained from Dr. Trina Stewart (Griffith University, Nathan, QLD, Australia. Tumor cell lines were transduced to express chicken ovalbumin peptide and CD73 as previously described (1, 2, 3). Tumor cells are periodically verified to be Mycoplasma negative by the Victorian Infectious Diseases References Lab (Melbourne, VIC, Australia) by PCR analysis. Tumor cells were grown in DMEM supplemented with 10% FCS, GlutaMAX, and penicillin/streptomycin. 5×10^5 cells were resuspended in PBS and injected s.c. into C57/BL6 mice in a 100 μL volume. At day 14 tumors were measured and mice were randomized into distinct treatment groups to ensure that each group had tumors of similar size at the onset of treatment. Mice were treated i.p. at days 14, 18, 22, and 26 with either isotype control (2A3; 200 μg/mouse) or anti-PD-1 mAb (RMP1-14, 200 μg/mouse) and where indicated SYN-115 (Batch 71236AA002) at the indicated dose or vehicle control once or twice-daily via oral gavage on days 14 to 29. To calculate a dose of SYN-115 mouse weight was estimated to be 20 g per mouse. Therefore, 100 mg/kg=2 mg per mouse in 200 which is equivalent to 10 mg/ml. To make up 40 mL, 400 milligrams of SYN-115 was weighed and added into a Falcon tube, then 1 mL of Tween 80 was added and mixed into a paste and then 39 mL of 1% Methyl Cellulose was added. The solution was vortexed and then left on a rotating mixer for at least 2 hours and maintained at 4° C. Tumor measurements were taken 2-3 times per week. Tumor sizes were determined by width * length and mice were culled when tumors reached the ethical limit of 150 mm^2.

[3] = test system: AT-3ova CD73+ tumour (mouse breast carcinoma cell line AT-3); experiment: Example 2: anti-tumor responses of SYN-115 in the AT-3ova CD73+ tumour cell mouse model (tumor area); format: in vivo, C57/BL6 mice
Experimental: as §1, with “and where indicated, SYN-115 (Batch” for “and where indicated SYN-115 (Batch”, “vehicle control once-daily via oral” for “vehicle control once or twice-daily via oral”, “in 200 μL, which is” for “in 200 which is”, “left on rotating mixer” for “left on a rotating mixer”

COc1ccc(N2CCOCC2)c2sc(NC(=O)N3CCC(C)(O)CC3)nc12 [SYN-115, 4-hydroxy-4-methyl-piperidine-1-carboxylic acid (4-methoxy-7-morpholin-4-yl-benzothiazol-2-yl)-amide]
Number of Tumor Metastases (lung), individual mice ([1]; 100 mg/kg once-daily oral gavage days 0 to 13, counted day 14, Batch 71236AA002): 53 and 108 and 107 and 61 and 72 and 64 and 40 and 24 and 56 and 82
Efficacy on tumor metastases ([1]; SYN-115 100 mg/kg once-daily oral, days 0 to 13): No efficacy
Tumor size (width * length) ([2]; 2A3 (200 ug/mouse)+SYN-115 (100 mg/kg) QD, Day 0): 19.38 mm^2 and 14.96 mm^2 and 20 mm^2 and 24.38 mm^2 and 13.26 mm^2 and 18.9 mm^2
Tumor size (width * length) ([2]; 2A3 (200 ug/mouse)+SYN-115 (100 mg/kg) QD, Day 31): 73.1 mm^2
Tumor size (width * length) ([2]; 2A3 (200 ug/mouse)+SYN-115 (100 mg/kg) QD, Day 34): 74.82 mm^2
Tumor size (width * length) ([2]; 2A3 (200 ug/mouse)+SYN-115 (100 mg/kg) QD, Day 39): 86.45 mm^2
Tumor size (width * length) ([2]; 2A3 (200 ug/mouse)+SYN-115 (100 mg/kg) QD, Day 42): 129.87 mm^2
Raw Tumor Measurements ([2]; Anti-PD-1 (200 ug)+SYN-115 (30 mg/kg) BID, Day 0): 12.6 and 15.54 and 22 and 16.38 and 22.68 and 18.36
Raw Tumor Measurements ([2]; Anti-PD-1 (200 ug)+SYN-115 (30 mg/kg) BID, Day 17): 44.08 and 44.22 and 73.92 and 38.86 and 63.24 and 66.64
Raw Tumor Measurements ([2]; Anti-PD-1 (200 ug)+SYN-115 (30 mg/kg) BID, Day 31): 111.28 and 64.74
Raw Tumor Measurements ([2]; Anti-PD-1 (200 ug)+SYN-115 (30 mg/kg) BID, Day 34): 73.1
Raw Tumor Measurements ([2]; Anti-PD-1 (200 ug)+SYN-115 (30 mg/kg) BID, Day 39): 69.6
Raw Tumor Measurements ([2]; Anti-PD-1 (200 ug)+SYN-115 (30 mg/kg) BID, Day 42): 99.51
Raw Tumor Measurements ([2]; Anti-PD-1 (200 ug)+SYN-115 (30 mg/kg) BID, Day 44): 114.33
Tumor size (width * length) ([2]; Anti-PD-1 (200 ug)+SYN-115 (30 mg/kg) QD, Day 28): 58.5 mm^2 and 63.99 mm^2 and 113.1 mm^2
Tumor size (width * length) ([2]; Anti-PD-1 (200 ug)+SYN-115 (30 mg/kg) QD, Day 31): 57.76 mm^2 and 74.82 mm^2
Tumor size (width * length) ([2]; Anti-PD-1 (200 ug)+SYN-115 (30 mg/kg) QD, Day 34): 72.8 mm^2 and 93.06 mm^2
Tumor size (width * length) ([2]; Anti-PD-1 (200 ug)+SYN-115 (30 mg/kg) QD, Day 39): 83.42 mm^2 and 127 mm^2
Tumor size (width * length) ([2]; Anti-PD-1 (200 ug)+SYN-115 (30 mg/kg) QD, Day 42): 127.53 mm^2
Raw Tumor Measurements ([2]; Anti-PD-1 (200 ug)+SYN-115 (100 mg/kg) BID, Day 0): 16.28 and 15.96 and 20.46 and 16.8 and 24.12 and 12.24
Raw Tumor Measurements ([2]; Anti-PD-1 (200 ug)+SYN-115 (100 mg/kg) BID, Day 22): 49.92 and 83.7 and 67.45 and 51.48 and 75.64 and 82.39
Raw Tumor Measurements ([2]; Anti-PD-1 (200 ug)+SYN-115 (100 mg/kg) BID, Day 28): 66.96 and 98.79 and 88.4 and 132.3 and 118.34
Raw Tumor Measurements ([2]; Anti-PD-1 (200 ug)+SYN-115 (100 mg/kg) BID, Day 31): 79.38 and 102.08 and 109.44
Raw Tumor Measurements ([2]; Anti-PD-1 (200 ug)+SYN-115 (100 mg/kg) BID, Day 34): 99.36
Raw Tumor Measurements ([2]; Anti-PD-1 (200 ug)+SYN-115 (100 mg/kg) BID, Day 39): 103.55
Raw Tumor Measurements ([2]; Anti-PD-1 (200 ug)+SYN-115 (100 mg/kg) QD, Day 0): 14.82 and 14.76 and 15.17 and 15.12 and 23.78
Raw Tumor Measurements ([2]; Anti-PD-1 (200 ug)+SYN-115 (100 mg/kg) QD, Day 9): 29.07 and 25 and 29.68 and 26 and 34.78 and 29.25
Raw Tumor Measurements ([2]; Anti-PD-1 (200 ug)+SYN-115 (100 mg/kg) QD, Day 13): 32.45 and 39.33 and 38.19 and 25.48 and 40.7 and 33.5
Raw Tumor Measurements ([2]; Anti-PD-1 (200 ug)+SYN-115 (100 mg/kg) QD, Day 15): 39.33 and 42 and 44.2 and 32.86 and 50.74 and 25.85
Raw Tumor Measurements ([2]; Anti-PD-1 (200 ug)+SYN-115 (100 mg/kg) QD, Day 17): 39.53 and 44.4 and 48 and 31.35 and 52.92 and 44.73
Raw Tumor Measurements ([2]; Anti-PD-1 (200 ug)+SYN-115 (100 mg/kg) QD, Day 20): 48.28 and 61.56 and 66.6 and 48.99 and 61.2 and 51.2
Raw Tumor Measurements ([2]; Anti-PD-1 (200 ug)+SYN-115 (100 mg/kg) QD, Day 24): 51.83 and 72.98 and 86.92 and 53.96 and 85.05 and 46.8
Raw Tumor Measurements ([2]; Anti-PD-1 (200 ug)+SYN-115 (100 mg/kg) QD, Day 28): 55.2 and 90.09 and 97.9 and 77.44 and 95.04 and 77.19
Raw Tumor Measurements ([2]; Anti-PD-1 (200 ug)+SYN-115 (100 mg/kg) QD, Day 31): 74.82 and 128.76 and 81.7 and 101.37 and 79.9
Raw Tumor Measurements ([2]; Anti-PD-1 (200 ug)+SYN-115 (100 mg/kg) QD, Day 34): 79.05 and 95.06 and 81.32
Raw Tumor Measurements ([2]; Anti-PD-1 (200 ug)+SYN-115 (100 mg/kg) QD, Day 39): 81.9 and 104.86 and 82.95
Raw Tumor Measurements ([2]; Anti-PD-1 (200 ug)+SYN-115 (100 mg/kg) QD, Day 42): 127.33 and 132.24
Tumor size (width * length) ([3]; 2A3 (200 μg/Mouse)+SYN-115 (100 mg/kg), Day 39): 123.2 mm^2 and 91.35 mm^2 and 103.88 mm^2
Tumor size (width * length) ([3]; 2A3 (200 μg/Mouse)+SYN-115 (100 mg/kg), Day 45): 143 mm^2
Tumor size (width * length) ([3]; Anti-PD-1 (200 ug)+SYN-115 (10 mg/kg), Day 50): 48.38 mm^2 and 66.22 mm^2
Tumor size (width * length) ([3]; Anti-PD-1 (200 ug)+SYN-115 (10 mg/kg), Day 53): 53.6 mm^2 and 83.72 mm^2
Tumor size (width * length) ([3]; Anti-PD-1 (200 ug)+SYN-115 (10 mg/kg), Day 57): 63.19 mm^2 and 81.6 mm^2
Tumor size (width * length) ([3]; Anti-PD-1 (200 ug)+SYN-115 (10 mg/kg), Day 60): 72.72 mm^2 and 80.04 mm^2
Tumor size (width * length) ([3]; Anti-PD-1 (200 ug)+SYN-115 (10 mg/kg), Day 64): 91.64 mm^2 and 104.86 mm^2
Tumor size (width * length) ([3]; Anti-PD-1 (200 ug)+SYN-115 (10 mg/kg), Day 68): 121.26 mm^2
Tumor size (width * length) ([3]; Anti-PD-1 (200 ug)+SYN-115 (30 mg/kg), Day 57): 75.24 mm^2 and 44.22 mm^2
Tumor size (width * length) ([3]; Anti-PD-1 (200 ug)+SYN-115 (30 mg/kg), Day 60): 89.25 mm^2 and 48.28 mm^2
Tumor size (width * length) ([3]; Anti-PD-1 (200 ug)+SYN-115 (30 mg/kg), Day 64): 107.1 mm^2 and 69.52 mm^2
Tumor size (width * length) ([3]; Anti-PD-1 (200 ug)+SYN-115 (30 mg/kg), Day 68): 92.22 mm^2
Tumor size (width * length) ([3]; Anti-PD-1 (200 ug)+SYN-115 (100 mg/kg), Day 45): 101 mm^2 and 129.71 mm^2 and 75.84 mm^2
Tumor size (width * length) ([3]; Anti-PD-1 (200 ug)+SYN-115 (100 mg/kg), Day 50): 136.4 mm^2
